Experimental data as given in US20230382863A1, “MEK INHIBITORS AND USES THEREOF” (Ikena Oncology, Inc., priority 2022, published 2023).
pIC50: −log10 of the molar value. Where two headings read alike, the source gives them in different places.

How the values were obtained:
uMEK/BRAF = uMEK/BRAF (Homo sapiens (Human), UniProt Q02750); test: MEK-RAF Binding Assay (uMEK/BRAF HTRF)
[1] = tested on: Phosphorylation of ERK1/2 in AsPC1 cells; test: 4 hour pERK1/2 HTRF Assay; format: cell-based; details: Homo sapiens, ASPC1, read-out: pERK AsPC-1 HTRF (4 hour): Average IC50 (nM); AsPC-1, 4 hour
Method: AsPC1 cells were seeded at 20,000 cells/well overnight in 96-well plates, then treated with a 12-point dose response of compounds (Starting dose of 3000 nM and 3-fold dilution) for 4 hours. AsPC1 cells are a K-Ras mutant cell line. Phosphorylation of ERK1/2 on residues Thr202 and Tyr204 were detected using a Homogenous Time-Resolved Fluorescence (HTRF) assay (Cisbio Cat #64ERKPEG). Briefly, ERK phosphorylation was detected using a sandwich assay format using two phospho-ERK specific antibodies, one labelled with EU^3+-Cryptate (donor) and the second with d2 (acceptor). The Fluorescence Resonance Energy Transfer (FRET) towards the d2 acceptor was detected at a wavelength of 665 nm. ERK1/2 phosphorylation levels were normalized to total ERK1/2 protein levels in each well. IC50 values were determined by fitting a variable slope, four parameters curve to the compound concentration to normalized Phospho-ERK1/2 relationship.

pERK HCT-116 (G13D) = pERK HCT-116 (G13D) ICW (4 hour); format: cell-based; details: for IC50: Homo sapiens, read-out: pERK HCT-116 (G13D) ICW (4 hour): Average IC50 (nM); for pIC50: read-out: pERK HCT-116 (G13D) ICW (4 hour): Average IC50
[2] = Cassette pharmacokinetics studies in mice; format: in vivo; details: male, Balb/c, plasma; Mouse, PO, 5 mg/kg
Method: Pharmacokinetics studies were conducted using cassette dosing protocols, with test compounds administered per mouse. Treatment groups were 3 mice (˜6-8 weeks old, ˜20-30 g Balb/c male mice) per route of administration. Compounds were formulated in 5% DMSO and 95% PEG400 with final concentrations of 0.5 mg/mL for IV and PO dosing. Compounds were dosed at 2 mg/kg for IV dosing and 5 mg/kg for PO dosing. Blood samples were withdrawn at 0.083, 0.25, 0.5, 1.0, 2.0, 4.0, 6.0, 8.0, and 24 hours following IV dosing, and 0.25, 0.5, 1.0, 2.0, 4.0, 6.0, 8.0, and 24 hours following PO dosing. Blood samples were centrifuged at 4,000 g for 5 minutes at 4° C. to obtain plasma samples. Plasma samples were diluted with acetonitrile containing internal standard, vortexed for 30 seconds, then centrifuged at 4,000 rpm for 15 minutes at 4° C. The supernatant was diluted with water, and compound concentration was determined by HPLC/MS/MS compared to calibration standards of 0.5-1,000 ng/mL.
Where route is listed as “IV*”, the compound was dosed IV at 1 mg/kg.

Row | Compound | pIC50 (uMEK/BRAF) | IC50 [1] [nM] | IC50 (pERK HCT-116 (G13D)) [nM] | other results
1 | CNS(=O)(=O)Nc1cccc(Oc2c(C(=O)NCC3CC3)c(Nc3ccc(I)cc3F)n(C)c(=O)c2C)c1Cl [Compound I-39] | > 7.00 | < 100 | – | –
2 | Cc1c(Oc2ccc3c(c2)NS(=O)(=O)NC3)c(C(=O)NC2CC2)c(Nc2ccc(I)cc2F)n(C)c1=O [Compound I-13] | 6.00 to 7.00 | – | 100 to 1000 | –
3 | Cc1c(Oc2cccc(N=S(C)(N)=O)c2)c(C(=O)NC2CC2)c(Nc2ccc(I)cc2F)n(C)c1=O (stereo in doubt) [Compound I-7, (S)-4-(3-((amino(methyl)oxo-lambda6-sulfaneylidene)amino)phenoxy)-N-cyclopropyl-2-((2-fluoro-4-iodophenyl)amino)-1,5-dimethyl-6-oxo-1,6-dihydropyridine-3-carboxamide] | > 7.00 | – | < 100 | –
4 | CNS(=O)(=O)Nc1cc(Oc2c(C(=O)NC3CC3)c(Nc3ccc(I)cc3F)n(C)c(=O)c2C)ccc1OC [Compound I-18] | 6.00 to 7.00 | – | 1000 to 10000 | –
5 | N-cyclopropyl-2-[(2-fluoro-4-iodophenyl)amino]-4-(3-methanesulfonoimidamidophenoxy)-1,5-dimethyl-6-oxopyridine-3-carboxamide [Compound I-20] | 6.00 to 7.00 | – | – | pIC50 (pERK HCT-116 (G13D)): 6.00 to 7.00
6 | CNS(=O)(=O)Nc1ccc(OC)c(Oc2c(C(=O)NC3CC3)c(Nc3ccc(I)cc3F)n(C)c(=O)c2C)c1 [Compound I-26] | 5.00 to 6.00 | – | 1000 to 10000 | –
7 | CNS(=O)(=O)Nc1cccc(Oc2c(C(=O)NC3CC3)c(Nc3ccc(I)cc3F)n(C)c(=O)c2C)c1F [Compound I-4, N-cyclopropyl-4-{2-fluoro-3-[(methylsulfamoyl)amino]phenoxy}-2-[(2-fluoro-4-iodophenyl)amino]-1,5-dimethyl-6-oxopyridine-3-carboxamide] | > 7.00 | – | < 100 | –
8 | CNS(=O)(=O)Nc1cc(F)cc(Oc2c(C(=O)NC3CC3)c(Nc3ccc(I)cc3F)n(C)c(=O)c2C)c1 [Compound I-10] | > 7.00 | – | < 100 | –
9 | CNS(=O)(=O)Nc1cc(Oc2c(C(=O)NC3CC3)c(Nc3ccc(I)cc3F)n(C)c(=O)c2C)ccc1F [Compound I-15] | 6.00 to 7.00 | – | 100 to 1000 | –
10 | Cc1c(Oc2cccc(CS(=O)(=O)N(C)C)c2)c(C(=O)NC2CC2)c(Nc2ccc(I)cc2F)n(C)c1=O [Compound I-11] | > 7.00 | – | 100 to 1000 | –
11 | CNS(=O)(=O)Nc1cc(Oc2c(C(=O)NC3CC3)c(Nc3ccc(I)cc3F)n(C)c(=O)c2C)ccc1Cl [Compound I-19] | 6.00 to 7.00 | – | – | –
12 | Cc1c(Nc2ccc3c(c2)CNS(=O)(=O)N3)c(C(=O)NC2CC2)c(Nc2ccc(I)cc2F)n(C)c1=O [Compound I-62] | > 7.00 | – | < 100 | –
13 | CNS(=O)(=O)Nc1cc(OC)cc(Oc2c(C(=O)NC3CC3)c(Nc3ccc(I)cc3F)n(C)c(=O)c2C)c1 [Compound I-25] | 5.00 to 6.00 | – | 1000 to 10000 | –
14 | CNS(=O)(=O)Nc1cccc(Oc2c(C(=O)N(C)C3CC3)c(Nc3ccc(I)cc3F)n(C)c(=O)c2C)c1C [Compound I-24] | 5.00 to 6.00 | – | 100 to 1000 | –
15 | CNS(=O)(=O)Nc1cccc(Oc2c(C(=O)NC3CC3)c(Nc3ccc(I)cc3F)n(C)c(=O)c2C)c1C [Compound I-3] | > 7.00 | – | < 100 | –
16 | CNS(=O)(=O)Nc1cc(Oc2c(C(=O)NC3CC3)c(Nc3ccc(I)cc3F)n(C)c(=O)c2C)ccc1C [Compound I-22] | 6.00 to 7.00 | – | 1000 to 10000 | –
17 | CNS(=O)(=O)Nc1cccc(Oc2c(C(=O)NC3CC3)c(Nc3ccc(I)cc3F)n(C)c(=O)c2C)c1 [Compound I-5, N-cyclopropyl-2-((2-fluoro-4-iodophenyl)amino)-1,5-dimethyl-4-(3-((N-methylsulfamoyl)amino)phenoxy)-6-oxo-1,6-dihydropyridine-3-carboxamide] | > 7.00 | – | < 100 | –
18 | Cc1c(Oc2ccc3c(c2)CNS(=O)(=O)N3)c(C(=O)NC2CC2)c(Nc2ccc(I)cc2F)n(C)c1=O [Compound I-59] | 6.00 to 7.00 | – | 100 to 1000 | –
19 | Cc1c(Oc2cccc(CS(N)(=O)=O)c2)c(C(=O)NC2CC2)c(Nc2ccc(I)cc2F)n(C)c1=O [Compound I-16] | 6.00 to 7.00 | – | 100 to 1000 | –
20 | Cc1c(Oc2cccc(NS(N)(=O)=O)c2)c(C(=O)NC2CC2)c(Nc2ccc(I)cc2F)n(C)c1=O [Compound I-6] | > 7.00 | – | < 100 | –
21 | CNS(=O)(=O)Cc1cccc(Oc2c(C(=O)NC3CC3)c(Nc3ccc(I)cc3F)n(C)c(=O)c2C)c1 [Compound I-23, N-cyclopropyl-2-((2-fluoro-4-iodophenyl)amino)-1,5-dimethyl-4-(3-((N-methylsulfamoyl)methyl)phenoxy)-6-oxo-1,6-dihydropyridine-3-carboxamide] | 6.00 to 7.00 | – | – | pIC50 (pERK HCT-116 (G13D)): 5.00 to 6.00
22 | Cc1c(Oc2ccc3c(c2)CN(C)S(=O)(=O)N3)c(C(=O)NC2CC2)c(Nc2ccc(I)cc2F)n(C)c1=O [Compound I-60] | 6.00 to 7.00 | – | < 100 | –
23 | Cc1c(Oc2ccc3c(c2)CNS(=O)(=O)N3C)c(C(=O)NC2CC2)c(Nc2ccc(I)cc2F)n(C)c1=O [Compound I-61] | 6.00 to 7.00 | – | 100 to 1000 | –
24 | CNS(=O)(=O)Nc1c(F)ccc(Oc2c(C(=O)NC3CC3)c(Nc3ccc(I)cc3F)n(C)c(=O)c2C)c1Cl [Compound I-38] | > 7.00 | < 100 | – | –
25 | CNS(=O)(=O)Nc1ccc(F)c(Oc2c(C(=O)NC3CC3)c(Nc3ccc(I)cc3F)n(C)c(=O)c2C)c1 [Compound I-17] | 6.00 to 7.00 | – | 100 to 1000 | –
26 | CNS(=O)(=O)Nc1cc(C)cc(Oc2c(C(=O)NC3CC3)c(Nc3ccc(I)cc3F)n(C)c(=O)c2C)c1 [Compound I-21] | 6.00 to 7.00 | – | – | –

Continued, in another order:

Row | pIC50 (uMEK/BRAF) | IC50 [1] [nM] | IC50 (pERK HCT-116 (G13D)) [nM] | Compound | other results
27 | 6.00 to 7.00 | 1000 to 10000 | – | CNS(=O)(=O)n1ccc2ccc(Oc3c(C(=O)NC4CC4)c(Nc4ccc(I)cc4F)n(C)c(=O)c3C)cc21 [Compound I-78] | –
28 | > 7.00 | < 100 | – | Cc1c(Oc2cccc(N)c2Cl)c(C(=O)NC2CC2)c(Nc2ccc(I)cc2F)n(C)c1=O [Compound I-86] | –
29 | 6.00 to 7.00 | 100 to 1000 | – | CNS(=O)(=O)Nc1ccc(Oc2c(C(=O)NC3CC3)c(Nc3ccc(I)cc3F)n(C)c(=O)c2C)c(Cl)c1 [Compound I-63] | –
30 | – | < 100 | – | Cc1c(Oc2cccc(NS(N)(=O)=O)c2Cl)c(C(=O)NC2CC2)c(Nc2ccc(I)cc2F)n(C)c1=O [Compound I-112] | AUC(0-inf) [2]: 5830 ng·h/mL; AUC(0-t) [2]: 5370 ng·h/mL; Cmax [2]: 979 ng/mL; Tmax [2]: 1.3 h; half-life [2]: 2.27 h
31 | 6.00 to 7.00 | 100 to 1000 | – | CNS(=O)(=O)Nc1ccc(Oc2c(C(=O)NC3CC3)c(Nc3ccc(I)cc3F)n(C)c(=O)c2C)cc1 [Compound I-64] | AUC(0-inf) [2]: 505 ng·h/mL; AUC(0-t) [2]: 492 ng·h/mL; Cmax [2]: 231 ng/mL; Tmax [2]: 0.8 h; half-life [2]: 2.1 h
32 | – | 1000 to 10000 | – | CNS(=O)(=O)Nc1cncc(Oc2c(C(=O)NC3CC3)c(Nc3ccc(I)cc3F)n(C)c(=O)c2C)c1OC [Compound I-116] | –
33 | – | < 100 | – | Cc1c(Oc2cccc(NS(=O)(=O)N(C)C)c2Cl)c(C(=O)NC2CC2)c(Nc2ccc(I)cc2F)n(C)c1=O [Compound I-113] | –
34 | – | 1000 to 10000 | – | CCn1c(Nc2ccc(I)cc2F)c(C(=O)NC2CC2)c(Oc2cccc(NS(=O)(=O)NC)c2Cl)c(C2CC2)c1=O [Compound I-117] | –
35 | – | < 100 | – | CNS(=O)(=O)Nc1ccnc(Oc2c(C(=O)NC3CC3)c(Nc3ccc(I)cc3F)n(C)c(=O)c2C)c1OC [Compound I-115] | –
36 | – | 100 to 1000 | – | CCN(c1cccc(Oc2c(C(=O)NC3CC3)c(Nc3ccc(I)cc3F)n(C)c(=O)c2C)c1Cl)S(=O)(=O)NC1CC1 [Compound I-98] | –
37 | – | < 100 | – | CCN(C)S(=O)(=O)Nc1cccc(Oc2c(C(=O)NC3CC3)c(Nc3ccc(I)cc3F)n(C)c(=O)c2C)c1Cl [Compound I-111] | –
38 | – | < 100 | – | Cc1c(Oc2cccc(NS(=O)(=O)N3CC(F)C3)c2Cl)c(C(=O)NCC(F)(F)F)c(Nc2ccc(I)cc2F)n(C)c1=O [Compound I-104] | –
39 | 6.00 to 7.00 | < 100 | – | CNS(=O)(=O)Nc1cccc(Oc2c(C(=O)N3CCC3)c(Nc3ccc(I)cc3F)n(C)c(=O)c2C)c1Cl [Compound I-79] | –
40 | 6.00 to 7.00 | – | – | N-cyclopropyl-4-((2,2-dioxido-3,4-dihydro-1H-benzo[c][1,2,6]thiadiazin-7-yl)oxy)-2-((2-fluoro-4-iodophenyl)amino)-1,5-dimethyl-6-oxo-1,6-dihydropyridine-3-carboxamide [Compound I-14] | –
41 | – | < 100 | – | CNS(=O)(=O)Nc1ccnc(Oc2c(C(=O)NC3CC3)c(Nc3ccc(I)cc3F)n(C)c(=O)c2C)c1Cl [Compound I-93] | –
